Measurements as given in patent US20210253598A1, “ARYL ANNULATED MACROCYCLIC INDOLE DERIVATIVES” (priority 2017, published 2021).
Where “and” joins values, the source holds several entries; their conditions need not be identical. Identical values can stand only once. Counter-ions that a name gives are not always drawn. Like-named read-outs stand apart in the source and are kept apart here.

Columns and labels:
[1] = tested on: SUDHL5; experiment: Anti-proliferative effect in SUDHL5 cells, CellTiter-Glo (Assay 7); type: cell-based
In short: (§1)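 Overnight seeding at 37 °C, then 72 h treatment with compound; day 0 plate read at start. Luminescent ATP-based viability readout (CellTiter-Glo). IC50 normalised between day 0 and DMSO values.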

[2] = tested on: SUDHL5; experiment: Induction of cytotoxicity in SUDHL5 cells, CellTiter-Glo (Assay 6); type: cell-based; conditions: SUDHL5, 5 hours incubation, median, read-out: Cytotox SUDHL5 [M] (median)
In short: (§2)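 Short-exposure cytotoxicity: 5 h compound, 37° C, humidified; CellTiter-Glo luminescence; cell-free medium control; edge wells omitted.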

[3] = tested on: AMO-1; experiment: Anti-proliferative effect in AMO-1 cells, CellTiter-Glo (Assay 7); type: cell-based; conditions: several values per example
In short: as §1

[4] = tested on: SUDHL10; experiment: Induction of caspase-3/7 activity in SUDHL10 cells (Assay 4); type: cell-based
In short: (§3)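 Luminescent Caspase-Glo 3/7 read-out in SUDHL5 and SUDHL10 cells after 3 h compound exposure at 37 °C, followed by 1 h reagent incubation.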

[5] = tested on: SUDHL10; experiment: Induction of cytotoxicity in SUDHL10 cells, CellTiter-Glo (Assay 6); type: cell-based; conditions: SUDHL10, 5 hours incubation, median, read-out: Cytotox SUDHL10 [M] (median)
In short: as §2

[6] = tested on: SUDHL5; experiment: Induction of caspase-3/7 activity in SUDHL5 cells (Assay 4); type: cell-based
In short: as §3

[7] = target: BCL-2 (Homo sapiens, UniProt P10415); experiment: Protein-protein interaction assay BCL-2/Bad BH3 peptide, TR-FRET (BCL-2 assay, Assay 3); type: binding; conditions: His-BCL-2 / Bad BH3 peptide, median
Chain of BCL-2 (P10415 1-211): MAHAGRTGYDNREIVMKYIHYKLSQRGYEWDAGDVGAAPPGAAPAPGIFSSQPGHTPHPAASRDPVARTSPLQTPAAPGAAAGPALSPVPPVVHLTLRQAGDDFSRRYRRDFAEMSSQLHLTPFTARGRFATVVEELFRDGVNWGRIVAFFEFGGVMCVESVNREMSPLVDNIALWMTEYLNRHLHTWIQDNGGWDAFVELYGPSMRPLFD

[8] = target: BCL-XL (Homo sapiens, UniProt Q07817); experiment: Protein-protein interaction assay BCL-XL/Bad BH3 peptide, TR-FRET (BCL-XL assay, Assay 2); type: binding; conditions: His-BCL-XL / Bad BH3 peptide, median
Chain of BCL-XL (Q07817 1-212): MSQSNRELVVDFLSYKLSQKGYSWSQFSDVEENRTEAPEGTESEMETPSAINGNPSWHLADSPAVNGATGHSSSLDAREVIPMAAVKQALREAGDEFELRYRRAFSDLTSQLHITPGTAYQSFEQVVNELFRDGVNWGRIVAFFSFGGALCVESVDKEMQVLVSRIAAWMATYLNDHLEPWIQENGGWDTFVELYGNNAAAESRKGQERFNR
Description: Protein-Protein Interaction Assay: BCL-XL/Bad BH3 Peptide (BCL-XL Assay)
The dose-dependent inhibition by the compounds described in this invention of the interaction between BCL-XL and the BH3 domain of Bad (both human) was determined using a steady state binding competition assay with time-resolved fluorescence energy transfer (TR-FRET) readout. For that purpose BCL-XL (amino acids 1-212, C-terminal fused to a hexahistidine (6×His) tag (SEQ ID 3) and a synthetic Bad BH3-derived peptide of sequence Biotin-PEG2-PEG2-[sequence]-Nle-[sequence]-amide (SEQ ID 4) served as protein receptor and tracer ligand respectively. The recombinant BCL-XL protein (expressed in E. coli) was purchased from BPS Bioscience (San Diego, Calif., USA). The Bad BH3-derived peptide can be obtained from e.g. Biosyntan (Berlin, Germany).
For that, 100-fold concentrated DMSO solutions were prepared by serial dilutions (1:3.4) of a 2 mM stock solution in a clear, 384-well microtiter plate (Greiner Bio-One, Frickenhausen, Germany). From there, 50 nl were transferred in a dark test plate (Greiner Bio-One, Frickenhausen, Germany). The assay was initiated by addition of 2 μl of a 2,5-fold concentrated His-BCL-XL solution (usually for a 1 nM end concentration in 5 μl reaction volume) in aqueous assay buffer [50 mM Tris/HCl pH 7, 100 mM sodium chloride (NaCl), 50 mM potassium fluoride (KF), 0.005% Tween-20, 2 mM DTT, 0.1% bovine gamma globulin (BGG)] to the compounds in the assay plate. This was followed by a 10-minute incubation step at 22° C. for pre-equilibration of the putative complex between His-BCL-XL and the compounds.
The mixture was incubated in the dark for one hour at 22° C. and then overnight at 4° C. The formation of BCL-XL/Bad complexes was determined by measuring the resonance energy transfer of the anti-His- Eu-cryptate antibody to the streptavidin-XL665 present in the reaction. For that purpose, the fluorescence emission at 620 nm and 665 nm after excitation at 330-350 nm was measured in a TR-FRET measuring instrument, for instance a Rubystar or a Pherastar (both from BMG Lab Technologies, Offenburg, Germany) or a Viewlux (Perkin-Elmer). The ratio of the emission at 665 nm and at 622 nm was used as indicator of the amount of BCL-XL/Bad complexes present.
The resulting data (ratio) were normalized, taking 0% inhibition as the mean value of control measurements (usually 32 data points) where all reagents were included. In this case 50 nl DMSO were used instead of compounds. […] IC50 values were determined by regression analysis based on a 4 parameter equation (minimum, maximum, IC50, Hill; Y=Max+(Min−Max)/(1+(X/IC50)^Hill) using the Screener Software (Genedata).

[9] = tested on: A2780; experiment: Anti-proliferative effect in A2780 cells, CellTiter-Glo (Assay 7); type: cell-based; conditions: Homo sapiens, A2780, 72 h, several values per example
In short: as §1

[10] = target: MCL-1 (Homo sapiens, UniProt Q07820, K194A/K197A/R201A); experiment: Protein-protein interaction assay MCL-1/Noxa BH3 peptide, TR-FRET (MCL-1 assay, Assay 1); type: binding; conditions: MCL-1 Assay [M] (median), MBP-MCL-1 / Noxa BH3 peptide
Chain of MCL-1 (Q07820 173-321 K194A/K197A/R201A, looked up): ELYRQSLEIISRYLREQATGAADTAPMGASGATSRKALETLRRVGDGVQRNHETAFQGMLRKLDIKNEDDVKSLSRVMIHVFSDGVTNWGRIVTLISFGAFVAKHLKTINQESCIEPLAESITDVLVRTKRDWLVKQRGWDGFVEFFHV
In short: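 TR-FRET competition between compounds and a biotin-PEG Noxa BH3 tracer for 1 nM MBP-MCL-1 (residues 173-321). Incubation was 1 h at 22 °C in the dark, then overnight at 4 °C, in 50 mM Tris pH 7 buffer with KF and DTT, after a 10-min compound pre-equilibration. Normalized ratios were fitted with a 4-parameter Hill equation to give IC50.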

[11] = tested on: MV-4-11; experiment: Anti-proliferative effect in MV-4-11 cells, CellTiter-Glo (Assay 7); type: cell-based; conditions: several values per example
In short: as §1

[12] = read-out: Antiproli SUDHL5 [M] (median), SUDHL5, 72 hours incubation, CellTiter-Glo
[13] = read-out: Antiproli AMO-1, AMO-1, 72 hours incubation, CellTiter-Glo
[14] = read-out: Caspase SUDHL5 [M] (median), SUDHL5, 3 hours treatment, Caspase-Glo 3/7
[15] = read-out: Antiproli A2780 [M], A2780, 72 hours incubation, CellTiter-Glo
[16] = Homo sapiens, SU-DHL-5, 72 h, SUDHL5, 72 hours incubation, CellTiter-Glo, median, read-out: Antiproli SUDHL5 [M] (median)
[17] = Homo sapiens, AMO1, 72 h, AMO-1, 72 hours incubation, CellTiter-Glo, read-out: Antiproli AMO-1
[18] = Homo sapiens, SU-DHL10, 3 h, SUDHL10, 3 hours treatment, Caspase-Glo 3/7, median, read-out: Caspase SUDHL10 [M] (median)
[19] = Homo sapiens, SU-DHL-5, 3 h, SUDHL5, 3 hours treatment, Caspase-Glo 3/7, median, read-out: Caspase SUDHL5 [M] (median)
[20] = A2780, 72 hours incubation, CellTiter-Glo, read-out: Antiproli A2780
[21] = read-out: Caspase SUDHL10 [M] (median), SUDHL10, 3 hours treatment, Caspase-Glo 3/7
[22] = AMO-1, 72 hours incubation, CellTiter-Glo, read-out: Antiproli AMO-1
[23] = Homo sapiens, MV4-11, 72 h, MV-4-11, 72 hours incubation, CellTiter-Glo, read-out: Antiproli MV-4-11
[24] = MV-4-11, 72 hours incubation, CellTiter-Glo, read-out: Antiproli MV-4-11

SMILES | IC50 [7] | IC50 [8] | IC50 [1, 16] | EC50 [4, 18] | EC50 [6, 19] | IC50 [10] | IC50 [9, 20] | IC50 [11, 23] | IC50 [1, 12] | IC50 ([2]; Homo sapiens, SU-DHL-5, 5 h) | IC50 [3, 13] | IC50 ([5]; Homo sapiens, SU-DHL10, 5 h) | EC50 [6, 14] | IC50 [9, 15] | IC50 [3, 17] | IC50 [2] | EC50 [4, 21] | IC50 [5] | also measured
Cc1c2c(nn1C)COCc1cccnc1Cn1c(C(=O)O)c(CCCOc3cccc4ccccc34)c3ccc(Cl)c-2c31 (single isomer, unassigned; enantiomer 1) [Example 40, 3-Chloro-4,5-dimethyl-17-[3-(naphthalen-1-yloxy)propyl]-5,7,9,14-tetrahydropyrazolo-[4′,3′:9,10]pyrido[3′,2′:3,4][1,6]oxazacycloundecino[8,7,6-hi]indole-16-carboxylic acid-N-ethylethanamine Salt (Enantiomer 1)] | > 20 µM | 19.4 µM | – | – | – | – | – | – | 2.2e-06 M | 3.3e-06 M | 9.07e-06 M | 8.3e-06 M | 2.5e-06 M | 2.19e-05 M | – | – | – | – | IC50 ([3]; Homo sapiens, AMO1, 72 h, read-out: Antiproli AMO-1 [M], AMO-1, 72 hours incubation, CellTiter-Glo): 7.53e-06 M; EC50 ([4]; Homo sapiens, SU-DHL10, 3 h, read-out: Caspase SUDHL10 [M] (median), SUDHL10, 3 hours treatment, Caspase-Glo 3/7): 1.4e-05 M
CCc1c2c(nn1C)COCc1ccccc1Cn1c(C(=O)O)c(CCCOc3cccc4ccccc34)c3ccc(F)c-2c31 (single isomer, unassigned; enantiomer 1) [Example 71, (−)-4-Ethyl-3-fluoro-5-methyl-17-{3-[(naphthalen-1-yl)oxy]propyl}-5,7,9,14-tetrahydroindolo[7,1-fg]pyrazolo[3,4-d][2,8]benzoxazacycloundecine-16-carboxylic acid-N-ethylethanamine Salt (Enantiomer 1)] | 12.8 µM | > 20 µM | – | – | – | 1.2e-09 M | – | – | 2.5e-06 M | – | 3.48e-06 M | – | 1.6e-06 M | 9.41e-06 M | – | 1.9e-06 M | 4e-06 M | 3.6e-06 M | IC50 ([11]; Homo sapiens, MV4-11, 72 h, read-out: Antiproli MV-4-11 [M], MV-4-11, 72 hours incubation, CellTiter-Glo): 4.81e-06 M
CCc1c2c(nn1C)COCc1ccccc1Cn1c(C(=O)O)c(CCCOc3cccc4c3CCCC4)c3ccc(F)c-2c31 (racemic) [Example 77, (rac)-14-Ethyl-15-fluoro-13-methyl-1-(3-((5,6,7,8-tetrahydronaphthalen-1-yl)oxy)propyl)-4,9,11,13-tetrahydrobenzo[3,4]pyrazolo[4′,3′:9,10][1]oxa[6]azacycloundecino[8,7,6-hi]indole-2-carboxylic Acid] | 12.6 µM | > 20 µM | 5.8e-06 M | 8.4e-06 M | 2.4e-06 M | – | 1.02e-05 M | – | – | 3e-06 M | – | 6.2e-06 M | – | – | 7.22e-06 M | – | – | – | –
CCc1c2c(nn1C)COCc1ccccc1Cn1c(C(=O)O)c(CCCOc3cccc4cc(F)ccc34)c3ccc(F)c-2c31 (single isomer, unassigned; enantiomer 1) [Example 74, (−)-4-Ethyl-3-fluoro-17-{3-[(6-fluoronaphthalen-1-yl)oxy]propyl}-5-methyl-5,7,9,14-tetrahydroindolo[7,1-fg]pyrazolo[3,4-d][2,8]benzoxazacycloundecine-16-carboxylic acid-N-ethylethanamine Salt (Enantiomer 1)] | 19.8 µM | > 20 µM | – | – | – | 9.2e-10 M | – | – | 1.3e-06 M | – | 1.78e-06 M | – | 8.2e-07 M | – | – | 1.1e-06 M | 1.2e-06 M | 1.4e-06 M | IC50 ([11]; read-out: Antiproli MV-4-11, MV-4-11, 72 hours incubation, CellTiter-Glo): 3.65e-06 M
Cc1c2c(nn1C)CN(C)Cc1ccccc1Cn1c(C(=O)O)c(CCCOc3cccc4ccccc34)c3cccc-2c31 (single isomer, unassigned; enantiomer 1) [Example 15, 4,5,8-Trimethyl-17-[3-(naphthalen-1-yloxy)propyl]-7,8,9,14-tetrahydro-5H-indolo[1,7-bc]-pyrazolo[4,3-e][2,8]benzodiazacycloundecine-16-carboxylic acid-N-ethylethanamine Salt (Enantiomer 1)] | > 20 µM | > 20 µM | – | – | – | 6.9e-09 M | – | – | – | – | 6.25e-06 M and 5.63e-06 M | – | 2.6e-06 M | > 3.3e-05 M | – | 3.3e-06 M | 1.2e-05 M | 1.1e-05 M | IC50 ([1]; Homo sapiens, SU-DHL-5, 72 h, read-out: Antiproli SUDHL5 [M] (median), SUDHL5, 72 hours incubation, CellTiter-Glo): 2.8e-06 M

Continued, in another order:

IC50 [7] | IC50 [8] | IC50 [1, 16] | EC50 [4, 18] | EC50 [6, 19] | IC50 [10] | IC50 [9, 20] | IC50 [11, 23] | SMILES | IC50 [1, 12] | IC50 ([2]; Homo sapiens, SU-DHL-5, 5 h) | IC50 [3, 13] | IC50 ([5]; Homo sapiens, SU-DHL10, 5 h) | EC50 [6, 14] | IC50 [9, 15] | IC50 [3, 17] | IC50 [2] | EC50 [4, 21] | IC50 [5] | also measured
> 20 µM | > 20 µM | 7.7e-06 M | > 2.5e-05 M | 5.2e-06 M | 7.6e-09 M | 1.78e-05 M | – | Cc1nn(C)c2c1-c1c(F)ccc3c(CCCOc4cccc5ccccc45)c(C(=O)O)n(c13)Cc1ccccc1COC2 (racemic) [Example 80, (rac)-15-Fluoro-12,14-dimethyl-1-(3-(naphthalen-1-yloxy)propyl)-4,9,11,12-tetrahydrobenzo-[3,4]pyrazolo[4′,3′:9,10][1]oxa[6]azacycloundecino[8,7,6-hi]indole-2-carboxylic Acid] | – | 4.3e-06 M | – | > 1.1e-05 M | – | – | 2.57e-05 M | – | – | – | –
13.7 µM | > 20 µM | 2.1e-06 M | 9.4e-06 M | 2.3e-06 M | 4.5e-09 M | – | 1.24e-05 M | CCc1nn(C)c2c1-c1c(F)ccc3c(CCCOc4cccc5c4CCC5)c(C(=O)O)n(c13)Cc1ccccc1COC2 (racemic) [Example 87, (rac)-1-(3-((2,3-Dihydro-1H-inden-4-yl)oxy)propyl)-14-ethyl-15-fluoro-12-methyl-4,9,11,12-tetrahydrobenzo[3,4]pyrazolo[4′,3′:9,10][1,6]oxaazacycloundecino[8,7,6-hi]indole-2-carboxylic Acid] | – | 3.2e-06 M | – | 6e-06 M | – | – | 1.29e-05 M | – | – | – | IC50 [3, 22]: 6.64e-06 M; IC50 [11, 24]: 6.98e-06 M
≥ 20.5 µM | > 20 µM | 3.6e-06 M | 1.2e-05 M | 2.8e-06 M | 8.6e-09 M | – | 1.24e-05 M | CCc1nn(C)c2c1-c1c(F)ccc3c(CCCOc4cccc5ccccc45)c(C(=O)O)n(c13)Cc1ccccc1COC2 (racemic) [Example 91, (rac)-14-Ethyl-15-fluoro-12-methyl-1-(3-(naphthalen-1-yloxy)propyl)-4,9,11,12-tetrahydrobenzo[3,4]pyrazolo[4′,3′:9,10][1,6]oxaazacycloundecino[8,7,6-hi]indole-2-carboxylic Acid] | – | 3.2e-06 M | – | 7.5e-06 M | – | – | 1.87e-05 M | – | – | – | IC50 [3, 22]: 1.53e-05 M; IC50 [11, 24]: 1.17e-05 M
> 20 µM | > 20 µM | 7.7e-06 M | 2.7e-05 M | 9.8e-06 M | 6.2e-09 M | 3.1e-05 M | 1.25e-05 M | Cc1nn(C)c2c1-c1c(F)ccc3c(CCCOc4cccc5c4CCC5)c(C(=O)O)n(c13)Cc1ccccc1COC2 (racemic) [Example 84, (rac)-1-(3-((2,3-Dihydro-1H-inden-4-yl)oxy)propyl)-15-fluoro-12,14-dimethyl-4,9,11,12-tetrahydrobenzo[3,4]pyrazolo[4′,3′:9,10][1]oxa[6]azacycloundecino[8,7,6-hi]indole-2-carboxylic Acid] | – | 1.1e-05 M | – | 2.2e-05 M | – | – | – | – | – | – | –
